Positions of bridges follow the written chain, without caps; N, C: chain ends. Chains are numbered I, II in the order given.
Legend:
Type in all cases: cell-based
PP2A = experiment: Phosphatase activity of PP2A immunoprecipitated from MDA-MB-231 cells; details: concentrations ≧100 nM, EGF-stimulated MB231
Source text: FIG. 12A: Total PP2A activity immunoprecipitated from MDA-MB-231 cells treated with EGF and increasing concentrations of COG445. FIG. 12B: Western blot and densitometry analysis of total c-myc protein levels in U87 cells treated with the indicated concentrations of COG445 in the presence or absence of okadaic acid. FIG. 12C: Immunoprecipitation of the catalytic subunit of PP2A from MDA-MB-231 cells exposed to EGF and two different concentrations of COG445. The blot is probed for I2PP2A (SET) and PP2A catalytic subunit.
To further characterize the effect of COG445 on PP2A activity, MB231 cells were treated as above and the phosphatase activity of immunoprecipitated PP2A was measured. EGF stimulation caused a significant decrease in total PP2A activity compared to untreated serum starved cells (FIG. 12A). […] To further explore the extent of PP2A activation in response to COG445, total c-myc protein levels were determined by western blot analysis. C-myc is a substrate for PP2A and upon dephosphorylation is metabolized by ubiquitination and proteasomal degradation. In both U87 (FIG. 12B) and MB231 (data not shown) cell lines, c-myc levels decreased after a two-hour exposure to COG445 in a dose-dependent manner, reaching statistical significance at 1000 nM.

mTOR = mTOR phosphorylation in MB231 cells, Western blot; details: markedly reduced at ≧100 nM
Source text: (§1) FIG. 13A: Western blot and densitometry analysis of phosphorylated m-TOR levels in MDA-MB-231 cells treated with EGF and the indicated concentrations of COG445 in the presence or absence of okadaic acid. FIG. 13B: Western blot analysis of phosphorylated GSK-3β levels in MDA-MB-231 cells treated with EGF and the indicated concentrations of COG445 in the presence or absence of okadaic acid.
(§2) Akt exerts its proliferative signal by phosphorylating protein substrates such as mTOR and GSK-3β. To examine the effects of COG445 on downstream Akt signaling in MB231 cells, mTOR activation and GSK-3β inhibition was measured by western blot analysis. […] The reduction in mTOR and GSK-3β phosphorylation was eliminated in the presence of okadaic acid, further evidence that PP2A mediates the effects of COG445 on Akt signaling.

GSK-3β = GSK-3β phosphorylation in MB231 cells, Western blot; details: markedly reduced at ≧100 nM
Source text: as §1, §2

MB231 cells = experiment: Apoptosis after 24 hours of COG445; details: 1-1000 nM

Substance: I: Ac-RQIKIWFQNRRMKWKKCLRVRLASHLRKLRKRLL-NH2 / II: Ac-RQIKIWFQNRRMKWKKCLRVRLASHLRKLRKRLL-NH2 (disulfide I:17-II:17) [COG445, COG112-C-C-COG112]
- PP2A activity (PP2A): significant (P<0.01) increase
- mTOR phosphorylation upon EGF stimulation (mTOR): dose-dependent decrease
- GSK-3β phosphorylation upon EGF stimulation (GSK-3β): dose-dependent decrease
- apoptosis (MB231 cells): no indication of apoptosis

— US9809640B2, “ApoE peptide dimers and uses thereof” (priority 2010, dated 2017)
